Measurements: patent publication US20240116910A1, “Heterocycles as WIP1 Inhibitors” (PMV Pharmaceuticals, Inc., priority 2022, published 2024)

Tests used:
[1] = biological target: recombinant His-tag Wip1(2-420) protein (amino acids #2-420) (Homo sapiens (Human), UniProt O15297); assay: Wip1(2-420) phosphatase enzyme FDP assay; format: biochemical; details: fluorescein diphosphate (FDP) substrate, RT 2 hours, fluorescence Ex485/Em535; read-out: WIP1 (Truncated 2-420) FDP Assay: IC50
[2] = biological target: recombinant His-tag Wip1 full length protein (amino acids #1-605) (Homo sapiens (Human), UniProt O15297); assay: Wip1 full length phosphatase enzyme FDP assay; format: biochemical; details: fluorescein diphosphate (FDP) substrate, RT 2 hours, fluorescence Ex485/Em535
Sequence of recombinant His-tag Wip1 full length protein (amino acids #1-605) (O15297 whole entry): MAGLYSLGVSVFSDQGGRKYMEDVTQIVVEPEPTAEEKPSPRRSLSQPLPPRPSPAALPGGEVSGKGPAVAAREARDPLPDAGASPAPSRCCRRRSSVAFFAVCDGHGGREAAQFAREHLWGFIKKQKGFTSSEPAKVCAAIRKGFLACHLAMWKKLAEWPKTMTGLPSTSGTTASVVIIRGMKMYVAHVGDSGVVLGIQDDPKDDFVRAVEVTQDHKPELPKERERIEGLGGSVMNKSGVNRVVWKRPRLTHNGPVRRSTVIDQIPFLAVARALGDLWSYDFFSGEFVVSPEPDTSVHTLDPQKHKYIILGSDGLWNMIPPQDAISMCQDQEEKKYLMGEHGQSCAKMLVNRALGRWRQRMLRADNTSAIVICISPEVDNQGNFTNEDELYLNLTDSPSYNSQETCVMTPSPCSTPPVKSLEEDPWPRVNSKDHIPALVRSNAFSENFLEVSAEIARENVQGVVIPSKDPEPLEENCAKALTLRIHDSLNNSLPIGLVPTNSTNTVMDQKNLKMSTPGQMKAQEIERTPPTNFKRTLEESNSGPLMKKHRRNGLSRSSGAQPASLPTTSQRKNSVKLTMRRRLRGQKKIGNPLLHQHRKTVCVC

Sequence of recombinant His-tag Wip1(2-420) protein (amino acids #2-420) (O15297 2-420): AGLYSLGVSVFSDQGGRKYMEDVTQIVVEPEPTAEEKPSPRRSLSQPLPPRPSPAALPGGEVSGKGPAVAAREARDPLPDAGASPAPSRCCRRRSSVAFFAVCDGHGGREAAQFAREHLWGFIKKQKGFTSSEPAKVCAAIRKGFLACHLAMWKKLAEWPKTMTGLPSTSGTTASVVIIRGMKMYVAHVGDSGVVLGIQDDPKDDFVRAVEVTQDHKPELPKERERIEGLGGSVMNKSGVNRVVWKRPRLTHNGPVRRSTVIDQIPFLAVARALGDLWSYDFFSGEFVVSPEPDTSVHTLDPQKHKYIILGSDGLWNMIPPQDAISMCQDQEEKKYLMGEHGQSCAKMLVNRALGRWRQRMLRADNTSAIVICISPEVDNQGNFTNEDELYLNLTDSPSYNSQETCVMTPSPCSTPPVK

Structure (SMILES)	IC50 [1] [µM]	IC50 [2] [µM]
O=C(N[C@@H](CC1CCCCC1)C(=O)Nc1ccccn1)c1cnc(CNc2cncc(Cl)c2)s1 [Compound 302, 2-[[(5-chloro-3-pyridyl)amino]methyl]-N-[(1S)-1-(cyclohexylmethyl)-2-oxo-2-(2-pyridylamino)ethyl]thiazole-5-carboxamide]	0.055	0.015
Cc1ncc(Cl)cc1N[C@@H](C)c1ccc(C(=O)N[C@@H](CCC(C)(C)C)C(=O)Nc2cnn(C)c2)s1 [Compound 160, (2S)-2-({5-[(1S)-1-[(5-chloro-2-methylpyridin-3-yl)amino]ethyl]thiophen-2-yl}formamido)-5,5-dimethyl-N-(1-methyl-1H-pyrazol-4-yl)hexanamide]	0.009	0.013
Cc1ncc(Cl)cc1NC(C)c1ccc(C(=O)N[C@@H](CC2CCCC2)C(=O)NC2CC2)s1 (stereo partly drawn) [Compound 5, 5-[1-[(5-chloro-2-methyl-3-pyridyl)amino]ethyl]-N-[(1S)-1-(cyclopentylmethyl)-2-(cyclopropylamino)-2-oxo-ethyl]thiophene-2-carboxamide]	0.013	0.024
Cc1ncc(Cl)cc1NC(C)c1ccc(C(=O)N[C@@H](CC2CCCC2)C(=O)NC23CC(C2)C3)s1 (stereo partly shown) [Compound 117]	0.041	0.07
Cc1cc(NC(=O)[C@@H](NC(=O)c2ccc([C@H](C)Nc3cc(Cl)cnc3C)s2)C2CCCCC2)ccn1 [Compound 175, (2S)-2-({5-[(1S)-1-[(5-chloro-2-methylpyridin-3-yl)amino]ethyl]thiophen-2-yl}formamido)-2-cyclohexyl-N-(2-methylpyridin-4-yl)acetamide]	0.013	0.015
Cc1cc(NC(=O)[C@H](CC2CCCC2)NC(=O)c2cnc(C(C)Nc3cccc(Cl)c3)s2)ccn1 (stereo partly drawn) [Compound 121, (2S)-2-[(2-{1-[(3-chlorophenyl)amino]ethyl}-1,3-thiazol-5-yl)formamido]-3-cyclopentyl-N-(2-methylpyridin-4-yl)propanamide]	0.066	0.019
CC(Nc1cccc(Cl)c1)c1ccc(C(=O)N[C@@H](CC2CCCC2)C(=O)NC2CC2)s1 (stereo partly drawn) [Compound 4, 5-[1-(3-chloroanilino)ethyl]-N-[(1S)-1-(cyclopentylmethyl)-2-(cyclopropylamino)-2-oxo-ethyl]thiophene-2-carboxamide]	0.079	0.015
O=C(N[C@@H](CC1CCCCC1)C(=O)NC1CCOCC1)c1cnc(CNc2ccnc(C(F)(F)F)c2)s1 [Compound 305, N-[(1S)-1-(cyclohexylmethyl)-2-oxo-2-(tetrahydropyran-4-ylamino)ethyl]-2-[[[2-(trifluoromethyl)-4-pyridyl]amino]methyl]thiazole-5-carboxamide]	0.09	0.031
CC(Nc1cccc(Cl)c1)c1ncc(C(=O)N[C@@H](CC2CCCC2)C(=O)NC2CC2)s1 (stereo partly drawn) [Compound 123, (2S)-2-[(2-{1-[(3-chlorophenyl)amino]ethyl}-1,3-thiazol-5-yl)formamido]-3-cyclopentyl-N-cyclopropylpropanamide]	0.159	0.039
Cc1cc(NC(=O)[C@H](CC2CCCC2)NC(=O)c2cnc([C@@H](C)Nc3cccc(Cl)c3)s2)cc(C)n1 [Compound 118, (2S)-2-({2-[(1R)-1-[(3-chlorophenyl)amino]ethyl]-1,3-thiazol-5-yl}formamido)-3-cyclopentyl-N-(2,6-dimethylpyridin-4-yl)propanamide]	0.135	0.196
CC(c1ccc(C(=O)N[C@@H](CC2CCCC2)C(=O)NC2CC2)s1)N1CCc2cc(F)c(Cl)cc21 (stereo partly drawn) [Compound 46, (2S)-2-({5-[1-(6-chloro-5-fluoro-2,3-dihydro-1H-indol-1-yl)ethyl]thiophen-2-yl}formamido)-3-cyclopentyl-N-cyclopropylpropanamide]	0.016	0.023
Cc1ncc(Cl)cc1NC(C)c1ccc(C(=O)N[C@@H](CC2CCCC2)C(=O)NC23CC(C2)C3)s1 (stereo partly drawn) [Compound 10, N-[(1S)-2-(1-bicyclo [1.1.1]pentanylamino)-1-(cyclopentylmethyl)-2-oxo-ethyl]-5-[1-[(5-chloro-2-methyl-3-pyridyl)amino]ethyl]thiophene-2-carboxamide]	0.01	0.018

Results, then the compound that gave them:

IC50 [1] [µM]	IC50 [2] [µM]	Structure (SMILES)
0.103	0.136	Cc1ncc(Cl)cc1N[C@@H](C)c1ccc(C(=O)N[C@@H](CC23CC(C2)C3)C(=O)NC2CC2)s1 [Compound 72, (2S)-3-{bicyclo[1.1.1]pentan-1-yl}-2-({5-[(1S)-1-[(5-chloro-2-methylpyridin-3-yl)amino]ethyl]thiophen-2-yl}formamido)-N-cyclopropylpropanamide]
0.015	0.022	Cc1ncc(Cl)cc1N[C@@H](C)c1ccc(C(=O)N[C@@H](CC2CCCC2)C(=O)NC2CC3CCC(C2)O3)s1 (stereo partly drawn) [Compound 63, (2S)-2-({5-[(1S)-1-[(5-chloro-2-methylpyridin-3-yl)amino]ethyl]thiophen-2-yl}formamido)-3-cyclopentyl-N-{8-oxabicyclo[3.2.1]octan-3-yl}propanamide]
0.005	0.008	Cc1ncc(Cl)cc1N[C@@H](C)c1ccc(C(=O)N[C@@H](CC2CCCC2)C(=O)Nc2cnn(C3CCOCC3)c2)s1 [Compound 163, (2S)-2-({5-[(1S)-1-[(5-chloro-2-methylpyridin-3-yl)amino]ethyl]thiophen-2-yl}formamido)-3-cyclopentyl-N-[1-(oxan-4-yl)-1H-pyrazol-4-yl]propanamide]
0.021	0.027	CNC(=O)[C@H](CC1CCCC1)NC(=O)c1ccc([C@H](C)Nc2cc(Cl)cnc2C)s1 [Compound 74, (2S)-2-({5-[(1S)-1-[(5-chloro-2-methylpyridin-3-yl)amino]ethyl]thiophen-2-yl}formamido)-3-cyclopentyl-N-methylpropanamide]
0.018	0.023	Cc1ncc(Cl)cc1N[C@@H](C)c1ccc(C(=O)N[C@H](C(=O)Nc2cnn(C)c2)C2CCCCC2)s1 [Compound 177, (2S)-2-({5-[(1S)-1-[(5-chloro-2-methylpyridin-3-yl)amino]ethyl]thiophen-2-yl}formamido)-2-cyclohexyl-N-(1-methyl-1H-pyrazol-4-yl)acetamide]
0.005	0.008	Cc1ncc(Cl)cc1N[C@@H](C)c1ccc(C(=O)N[C@@H](CC2CCCC2)C(=O)N[C@H]2CC2(F)F)s1 [Compound 23, (2S)-2-({5-[(1S)-1-[(5-chloro-2-methylpyridin-3-yl)amino]ethyl]thiophen-2-yl}formamido)-3-cyclopentyl-N-[(1S)-2,2-difluorocyclopropyl]propanamide]
0.008	0.01	Cc1ncc(Cl)cc1N[C@@H](C)c1ccc(C(=O)N[C@@H](CC2CCCC2)C(=O)NC23CC(O)(C2)C3)s1 [Compound 20, (2S)-2-({5-[(1S)-1-[(5-chloro-2-methylpyridin-3-yl)amino]ethyl]thiophen-2-yl}formamido)-3-cyclopentyl-N-{3-hydroxybicyclo[1.1.1]pentan-1-yl}propanamide]
0.005	0.008	Cc1ncc(Cl)cc1N[C@@H](C)c1ccc(C(=O)N[C@@H](CC2CCCC2)C(=O)NC2CC(F)(F)C2)s1 [Compound 25, (2S)-2-({5-[(1S)-1-[(5-chloro-2-methylpyridin-3-yl)amino]ethyl]thiophen-2-yl}formamido)-3-cyclopentyl-N-(3,3-difluorocyclobutyl)propanamide]
